Here are results for 14 molecules from patent publication US8476298B2 (Exelixis, Inc., priority 2003, dated 2013).

As usually defined, the IC50 is the point on the concentration scale where inhibition reaches its midpoint.

Assay [1] has as its target T1, c-Met (baculovirus expressed human c-Met kinase domain P948-S1343) (Homo sapiens, UniProt P08581).
T1 construct: human c-Met kinase domain P948-S1343; host or cells: baculovirus expression
Put plainly: c-Met Luciferase-Coupled Chemiluminescent Kinase assay (LCCA).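 Also: kinase activity read as percent ATP left after reaction, by luciferase-luciferin chemiluminescence, with 1 µM ATP and 1 µM poly-EY substrate, 2 h at ambient temperature, 10-point dose-response.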 It is filed as biochemical.
Description: Kinase activity and compound inhibition are investigated using one or more of the three assay formats described below. The ATP concentrations for each assay are selected to be close to the Michaelis-Menten constant (KM) for each individual kinase. Dose-response experiments are performed at 10 different inhibitor concentrations in a 384-well plate format. […] Typically H is close to unity. c-Met Assay
c-Met biochemical activity was assessed using a Luciferase-Coupled Chemiluminescent Kinase assay (LCCA) format as described above. Again, kinase activity was measured as the percent ATP remaining following the kinase reaction. Remaining ATP was detected by luciferase-luciferin-coupled chemiluminescence. Specifically, the reaction was initiated by mixing test compounds, 1 μM ATP, 1 μM poly-EY and 10 nM c-Met (baculovirus expressed human c-Met kinase domain P948-S1343) in a 20 uL assay buffer (20 mM Tris-HCL pH7.5, 10 mM MgCl2, 0.02% Triton X-100, 100 mM DTT, 2 mM MnCu2). The mixture is incubated at ambient temperature for 2 hours after which 20 uL luciferase-luciferin mix is added and the chemiluminescent signal read using a Wallac Victor^2 reader.

The target in assay [2] is T2, KDR (baculovirus expressed human KDR kinase domain D807-V1356) (Homo sapiens, UniProt P35968).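 Also: Luciferase-coupled chemiluminescent kinase assay, activity read as percent ATP left after 4 h reaction at ambient temperature, ATP near KM, 10-point dose-response in 384-well plates.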
T2 construct: human KDR kinase domain D807-V1356; host or cells: baculovirus expression
The assay is described as follows: biochemical.

The target in assay [3] is T3, Flt-4 (baculovirus expressed human Flt-4 kinase domain D725-R1298) (Homo sapiens, UniProt P35916).
T3 construct: human Flt-4 kinase domain D725-R1298; host or cells: baculovirus expression
The assay is described as follows: flt-4 Alphascreen Tyrosine Kinase assay.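 Also: AlphaScreen chemiluminescence read-out of biotinylated poly(Glu,Tyr) 4:1 phosphorylation via streptavidin donor and PY100 anti-phosphotyrosine acceptor beads, ATP near KM, 1 hr kinase reaction, 10-point dose-response.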 In kind it is biochemical. The conditions noted are these: read-out: flt4 IC50. For orientation: Bead proximity is the source of the signal in Alpha formats.

Assay [4] has as its target T4, Flt-3 (baculovirus expressed human Flt-3 kinase domain R571-S993) (Homo sapiens, UniProt P36888).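 Also: Luciferase-coupled chemiluminescent kinase assay, activity read as percent ATP left after a 3 h reaction at room temperature, ATP near KM, 10-point dose-response.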
T4 construct: human Flt-3 kinase domain R571-S993; host or cells: baculovirus expression
T4 sequence (P36888 571-993): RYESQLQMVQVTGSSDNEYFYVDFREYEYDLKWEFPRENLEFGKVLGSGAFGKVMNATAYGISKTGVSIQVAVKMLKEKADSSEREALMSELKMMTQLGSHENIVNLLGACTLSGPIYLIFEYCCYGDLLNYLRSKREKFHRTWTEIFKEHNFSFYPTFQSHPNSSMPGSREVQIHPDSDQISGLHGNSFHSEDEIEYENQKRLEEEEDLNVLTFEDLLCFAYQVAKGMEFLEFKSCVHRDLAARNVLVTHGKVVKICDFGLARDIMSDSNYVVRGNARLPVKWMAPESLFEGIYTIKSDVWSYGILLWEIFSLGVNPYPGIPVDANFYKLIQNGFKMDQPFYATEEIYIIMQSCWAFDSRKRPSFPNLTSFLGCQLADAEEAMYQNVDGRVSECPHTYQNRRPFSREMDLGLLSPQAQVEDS
The assay is described as follows: biochemical. The conditions noted are these: read-out: flt3 IC50.
Description: Kinase activity and compound inhibition are investigated using one or more of the three assay formats described below. The ATP concentrations for each assay are selected to be close to the Michaelis-Menten constant (KM) for each individual kinase. Dose-response experiments are performed at 10 different inhibitor concentrations in a 384-well plate format.
Biochemical activity for flt-3 was assessed using a Luciferase-Coupled Chemiluminescent Kinase assay (LCCA) format. Kinase activity was measured as the percent ATP remaining following the kinase reaction. Remaining ATP was detected by luciferase-luciferin-coupled chemiluminescence. […] The mixture is incubated at ambient temperature for 3 hours after which 20 uL luciferase-luciferin mix is added and the chemiluminescent signal read using a Wallac Victor^2 reader.

A further assay concerns the target c-Kit kinase (Homo sapiens, UniProt P10721). Put plainly: c-Kit AlphaScreen kinase assay.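 Also: c-Kit kinase phosphorylating biotinylated poly(Glu,Tyr), ATP near its KM, 1 h reaction at ambient temperature, AlphaScreen chemiluminescence with streptavidin donor and anti-phosphotyrosine acceptor beads, 10-point inhibitor titration.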 In kind it is biochemical.
Setting [5] is: Table 4, inhibition as IC50 class.

Read-outs that look alike come from different tables or passages of the source.

Chain of c-Kit kinase (P10721 26-976): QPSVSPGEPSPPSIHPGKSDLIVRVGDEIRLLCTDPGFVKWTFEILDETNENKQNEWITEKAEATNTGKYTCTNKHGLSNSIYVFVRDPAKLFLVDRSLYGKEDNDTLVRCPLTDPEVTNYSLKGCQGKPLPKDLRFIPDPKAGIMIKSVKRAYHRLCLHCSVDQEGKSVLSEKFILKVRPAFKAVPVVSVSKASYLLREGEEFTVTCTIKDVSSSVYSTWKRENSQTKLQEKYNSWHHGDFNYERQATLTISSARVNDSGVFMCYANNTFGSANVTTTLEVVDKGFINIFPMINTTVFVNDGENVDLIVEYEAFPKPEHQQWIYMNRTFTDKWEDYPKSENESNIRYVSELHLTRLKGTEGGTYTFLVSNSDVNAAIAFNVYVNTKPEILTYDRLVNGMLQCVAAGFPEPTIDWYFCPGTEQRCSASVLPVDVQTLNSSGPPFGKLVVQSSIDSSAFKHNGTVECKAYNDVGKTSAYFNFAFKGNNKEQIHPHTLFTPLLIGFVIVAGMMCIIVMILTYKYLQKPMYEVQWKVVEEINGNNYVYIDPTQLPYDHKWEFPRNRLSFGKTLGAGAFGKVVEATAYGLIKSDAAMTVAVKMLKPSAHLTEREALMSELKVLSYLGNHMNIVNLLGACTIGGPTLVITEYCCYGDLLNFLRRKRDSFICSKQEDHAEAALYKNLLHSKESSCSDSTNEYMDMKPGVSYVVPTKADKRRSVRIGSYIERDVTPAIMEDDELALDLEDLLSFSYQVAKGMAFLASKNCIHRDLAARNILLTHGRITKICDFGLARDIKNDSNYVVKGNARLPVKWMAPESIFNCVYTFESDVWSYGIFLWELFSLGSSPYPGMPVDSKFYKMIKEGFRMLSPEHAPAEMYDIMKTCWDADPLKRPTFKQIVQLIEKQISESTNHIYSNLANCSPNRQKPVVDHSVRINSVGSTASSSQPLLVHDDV
T2 sequence (P35968 807-1356): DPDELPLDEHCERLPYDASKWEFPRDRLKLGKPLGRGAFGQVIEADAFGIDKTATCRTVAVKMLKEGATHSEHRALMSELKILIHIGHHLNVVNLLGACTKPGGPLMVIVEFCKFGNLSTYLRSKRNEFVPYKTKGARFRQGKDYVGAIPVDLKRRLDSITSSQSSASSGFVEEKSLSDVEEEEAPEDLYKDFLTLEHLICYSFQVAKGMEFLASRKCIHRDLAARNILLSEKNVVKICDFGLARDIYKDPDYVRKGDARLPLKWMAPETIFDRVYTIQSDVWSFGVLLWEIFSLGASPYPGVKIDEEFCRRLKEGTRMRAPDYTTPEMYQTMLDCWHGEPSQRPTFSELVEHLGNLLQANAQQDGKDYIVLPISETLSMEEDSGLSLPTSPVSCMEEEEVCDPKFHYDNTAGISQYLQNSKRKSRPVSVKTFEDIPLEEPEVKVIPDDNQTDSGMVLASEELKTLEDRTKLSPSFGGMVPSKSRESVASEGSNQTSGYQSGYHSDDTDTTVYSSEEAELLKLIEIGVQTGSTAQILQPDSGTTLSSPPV
T3 sequence (P35916 725-1298 isoform P35916-1): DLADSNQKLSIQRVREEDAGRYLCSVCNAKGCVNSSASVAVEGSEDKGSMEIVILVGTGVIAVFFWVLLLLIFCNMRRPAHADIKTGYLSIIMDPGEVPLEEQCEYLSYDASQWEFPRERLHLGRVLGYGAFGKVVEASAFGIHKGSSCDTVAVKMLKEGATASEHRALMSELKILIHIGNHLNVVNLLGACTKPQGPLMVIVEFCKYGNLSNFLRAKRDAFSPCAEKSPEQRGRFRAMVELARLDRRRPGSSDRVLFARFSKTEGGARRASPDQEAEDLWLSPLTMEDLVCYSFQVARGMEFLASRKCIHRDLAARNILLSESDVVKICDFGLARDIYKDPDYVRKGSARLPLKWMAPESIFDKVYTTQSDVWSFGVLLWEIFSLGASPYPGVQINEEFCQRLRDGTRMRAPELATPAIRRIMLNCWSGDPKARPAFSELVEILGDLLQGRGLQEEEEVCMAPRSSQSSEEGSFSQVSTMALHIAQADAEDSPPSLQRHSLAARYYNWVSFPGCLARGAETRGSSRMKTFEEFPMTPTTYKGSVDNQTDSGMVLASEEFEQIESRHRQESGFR
T1 sequence (P08581 1011-1343 limits assumed): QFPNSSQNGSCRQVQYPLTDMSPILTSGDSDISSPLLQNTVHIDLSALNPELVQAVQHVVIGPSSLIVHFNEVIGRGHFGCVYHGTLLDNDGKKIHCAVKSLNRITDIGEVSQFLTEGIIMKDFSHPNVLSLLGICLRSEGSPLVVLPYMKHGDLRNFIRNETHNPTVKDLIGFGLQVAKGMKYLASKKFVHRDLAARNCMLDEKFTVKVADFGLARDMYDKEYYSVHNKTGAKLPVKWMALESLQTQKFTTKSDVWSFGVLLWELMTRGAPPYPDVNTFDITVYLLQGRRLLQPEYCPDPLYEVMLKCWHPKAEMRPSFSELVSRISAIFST

Regarding `COc1cc2c(Oc3ccc(NC(=O)C(=O)NCCc4ccccc4)cc3F)ncnc2cc1OCC1CCN(C)CC1` [Example 276, N-{3-fluoro-4-[(6-(methyloxy)-7-{[(1-methylpiperidin-4-yl)methyl]oxy}quinazolin-4-yl)oxy]phenyl}-N′-(2-phenylethyl)ethanediamide], the half-maximal inhibitory concentration (IC50) (in assay [1] (setting [5]); in assay [2] (setting [5]); in assay [3] (setting [5]); in assay [4] (setting [5]); at c-Kit kinase (setting [5])) was less than 50 nM each time.
On to `CCN(CC)CCCOc1cc2nccc(Oc3ncc(NC(=O)CC(=O)Nc4ccc(F)cc4)cc3Cl)c2cc1OC` [Example 267, N-(5-chloro-6-{[7-{[3-(diethylamino)propyl]oxy}-6-(methyloxy)quinolin-4-yl]oxy}pyridin-3-yl)-N′-(4-fluorophenyl)propanediamide], for which the IC50 was less than 50 nM in assay [1] (setting [5]); 50 to 500 nM in assay [2] (setting [5]); 50 to 500 nM in assay [3] (setting [5]); less than 50 nM in assay [4] (setting [5]); 50 to 500 nM at c-Kit kinase (setting [5]).
On to `COc1cc2c(Oc3ccc(NC(=O)C(=O)N[C@@H]4CCCc5ccccc54)cc3F)ccnc2cc1OCC1CCNCC1` [Example 218, N-[3-fluoro-4-({6-(methyloxy)-7-[(piperidin-4-ylmethyl)oxy]quinolin-4-yl}oxy)phenyl]-N′-[(1R)-1,2,3,4-tetrahydronaphthalen-1-yl]ethanediamide], for which the half-maximal inhibitory concentration (IC50) was less than 50 nM in assay [1] (setting [5]); 50 to 500 nM in assay [2] (setting [5]); less than 50 nM in assay [3] (setting [5]); 50 to 500 nM in assay [4] (setting [5]); 50 to 500 nM on c-Kit kinase (setting [5]).
On to `O=C(Nc1ccc(F)cc1)C1(C(=O)Nc2ccc(Oc3ccnc4cc(Cl)ccc34)cc2)CC1` [Example 308, N-{4-[(7-chloroquinolin-4-yl)oxy]phenyl}-N′-(4-fluorophenyl)cyclopropane-1,1-dicarboxamide], for which the concentration for half-maximal inhibition (IC50) in assay [1] was less than 50 nM; in assay [2], less than 50 nM; in assay [3], 50 to 500 nM; in assay [4] it was 500 to 5000 nM; against c-Kit kinase, 50 to 500 nM.
Take `COc1cc2c(Oc3ccc(NC(=O)C(=O)NCc4cc(Cl)cc(Cl)c4)cc3F)ccnc2cc1OCC1CCNCC1` [Example 217, N-[(3,5-dichlorophenyl)methyl]-N′-[3-fluoro-4-({6-(methyloxy)-7-[(piperidin-4-ylmethyl)oxy]quinolin-4-yl}oxy)phenyl]ethanediamide]: the IC50 (in assay [1] (setting [5]); in assay [2] (setting [5]); in assay [3] (setting [5]); in assay [4] (setting [5]); against c-Kit kinase (setting [5])) was less than 50 nM throughout.
For the molecule `COc1cc2nccc(Oc3c(F)cc(NC(=O)C4(C(=O)Nc5ccc(F)cc5)CC4)cc3F)c2cc1OC` [Example 323, N-(4-{[6,7-bis(methyloxy)quinolin-4-yl]oxy}-3,5-difluorophenyl)-N′-(4-fluorophenyl)cyclopropane-1,1-dicarboxamide], the IC50 in assay [1] is less than 50 nM; in assay [2] it was less than 50 nM; in assay [3] it was less than 50 nM; in assay [4] it was less than 50 nM; against c-Kit kinase, 50 to 500 nM.
On to `CCN(CC)CCOc1cc2nccc(Oc3ccc(NC(=O)C4(C(=O)Nc5ccc(F)cc5)CC4)cc3F)c2cc1OC` [Example 304, N-(4-{[7-{[2-(diethylamino)ethyl]oxy}-6-(methyloxy)quinolin-4-yl]oxy}-3-fluorophenyl)-N′-(4-fluorophenyl)cyclopropane-1,1-dicarboxamide], for which the concentration for half-maximal inhibition (IC50) (in assay [1]; in assay [2]; in assay [3]; in assay [4]; on c-Kit kinase) was less than 50 nM throughout.
As for `COc1cc2c(Oc3ccc(NC(=O)[C@]4(C(=O)Nc5ccc(F)cc5)C[C@H]4C)cc3F)ccnc2cc1OCCCN1CCOCC1` [Example 343, (1R,2R)-N-[3-fluoro-4-({6-(methyloxy)-7-[(3-morpholin-4-ylpropyl)oxy]quinolin-4-yl}oxy)phenyl]-N′-(4-fluorophenyl)-2-methylcyclopropane-1,1-dicarboxamide], the concentration for half-maximal inhibition (IC50) (in assay [1]; in assay [2]; in assay [3]; in assay [4]; against c-Kit kinase) was less than 50 nM in each case.
Regarding `COc1cc2nccc(Oc3nc(C)c(NC(=O)C4(C(=O)Nc5ccc(F)cc5)CC4)cc3Cl)c2cc1OC` [Example 320, N-(6-{[6,7-bis(methyloxy)quinolin-4-yl]oxy}-5-chloro-2-methylpyridin-3-yl)-N′-(4-fluorophenyl)cyclopropane-1,1-dicarboxamide], the IC50 was less than 50 nM in assay [1]; 500 to 5000 nM in assay [2]; 500 to 5000 nM in assay [3]; 50 to 500 nM in assay [4]; 500 to 5000 nM at c-Kit kinase.
In the case of `COc1cc2c(Oc3ccc(NC(=O)C(=O)N[C@H]4CCCc5ccccc54)cc3F)ccnc2cc1OCC1CCNCC1` [Example 219, N-[3-fluoro-4-({6-(methyloxy)-7-[(piperidin-4-ylmethyl)oxy]quinolin-4-yl}oxy)phenyl]-N′-[(1S)-1,2,3,4-tetrahydronaphthalen-1-yl]ethanediamide], the IC50 (in assay [1] (setting [5]); in assay [2] (setting [5]); in assay [3] (setting [5]); in assay [4] (setting [5]); against c-Kit kinase (setting [5])) was less than 50 nM each time.
On to `COc1cc2nccc(Oc3ccc(N4CC(Cc5ccccc5)N(S(=O)(=O)c5ccc(C)cc5)C4=O)cc3)c2cc1OC` (stereo not shown) [Example 112, 1-(4-{[6,7-bis(methyloxy)quinolin-4-yl]oxy}phenyl)-3-[(4-methylphenyl)sulfonyl]-4-(phenylmethyl)imidazolidin-2-one], for which the 50% inhibitory concentration (IC50) in assay [1] was in the range of 50 to 500 nM; in assay [2], 500 to 5000 nM; in assay [3], 500 to 5000 nM; in assay [4] it was 500 to 5000 nM; at c-Kit kinase it was 50 to 500 nM.
For the molecule `COc1cc2ncnc(Oc3ccc(NC(=O)C4(C(=O)Nc5ccc(F)cc5)CC4)cc3F)c2cc1OCC1CCN(C)CC1` [Example 325, N-{3-fluoro-4-[(7-(methyloxy)-6-{[(1-methylpiperidin-4-yl)methyl]oxy}quinazolin-4-yl)oxy]phenyl}-N′-(4-fluorophenyl)cyclopropane-1,1-dicarboxamide], the IC50 was less than 50 nM in assay [1]; less than 50 nM in assay [2]; less than 50 nM in assay [3]; less than 50 nM in assay [4]; 50 to 500 nM against c-Kit kinase.
On to `COc1cc2c(Oc3ccc(NC(=O)C(=O)NCc4ccccn4)cc3F)ccnc2cc1OCC1CCNCC1` [Example 274, N-[3-fluoro-4-({6-(methyloxy)-7-[(piperidin-4-ylmethyl)oxy]quinolin-4-yl}oxy)phenyl]-N′-(pyridin-2-ylmethyl)ethanediamide], for which the 50% inhibitory concentration (IC50) is less than 50 nM in assay [1] (setting [5]); 50 to 500 nM in assay [2] (setting [5]); 50 to 500 nM in assay [3] (setting [5]); 50 to 500 nM in assay [4] (setting [5]); 50 to 500 nM at c-Kit kinase (setting [5]).
Consider `COc1cc2c(Oc3ccc(NC(=O)C(=O)NCCN4CCOCC4)cc3F)ccnc2cc1OCC1CCNCC1` [Example 298, N-[3-fluoro-4-({6-(methyloxy)-7-[(piperidin-4-ylmethyl)oxy]quinolin-4-yl}oxy)phenyl]-N′-(2-morpholin-4-ylethyl)ethanediamide], for which the IC50 is 50 to 500 nM in assay [1]; less than 50 nM in assay [2]; 50 to 500 nM in assay [3]; less than 50 nM in assay [4]; 50 to 500 nM at c-Kit kinase.
